Measured values as given in patent publication US8329918B2, “Selective alpha 2B/2C agonists” (priority 2009, dated 2012).
Where two headings read alike, the source gives them in different places.

How the values were obtained:
alpha2C receptor = target: T1, alpha2C receptor (Homo sapiens, UniProt P18825); test: RSAT assay, alpha 2C; format: cell-based; conditions: for (rel. efficacy) Alpha 2C: ratio of maximal effect to standard full agonist brimonidine (UK14304)
T1 construct: expressed in transfected cells; host or cells: NIH-3T3
T1 sequence (P18825 1-462): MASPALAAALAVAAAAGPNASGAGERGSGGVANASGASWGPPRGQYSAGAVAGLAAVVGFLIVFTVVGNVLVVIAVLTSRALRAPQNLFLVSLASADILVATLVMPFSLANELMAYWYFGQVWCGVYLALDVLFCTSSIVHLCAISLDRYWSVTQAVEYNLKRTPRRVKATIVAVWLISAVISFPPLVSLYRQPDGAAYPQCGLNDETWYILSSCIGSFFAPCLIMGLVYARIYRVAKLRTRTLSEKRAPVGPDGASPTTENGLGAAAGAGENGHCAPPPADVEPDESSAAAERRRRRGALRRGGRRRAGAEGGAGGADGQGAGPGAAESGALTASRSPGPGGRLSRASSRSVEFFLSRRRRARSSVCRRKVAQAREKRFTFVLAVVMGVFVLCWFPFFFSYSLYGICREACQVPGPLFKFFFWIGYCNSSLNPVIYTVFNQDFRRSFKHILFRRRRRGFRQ
Description: (§1) Selected presently described compounds were synthesized and tested for alpha adrenergic activity using the Receptor Selection and Amplification Technology (RSAT) assay. Cells expressing each of the alpha-2-adrenergic receptors alone were incubated with various compounds and a receptor-mediated growth response was measured. The compound's activity is expressed as its relative efficacy compared to a standard full agonist.
(§2) The RSAT assay measures a receptor-mediated loss of contact inhibition that results in selective proliferation of receptor-containing cells in a mixed population of confluent cells. The increase in cell number is assessed with an appropriate transfected marker gene such as β-galactosidase, the activity of which can be easily measured in a 96-well format. Receptors that activate the G protein, Gq, elicit this response. Alpha2 receptors, which normally couple to Gi, activate the RSAT response when coexpressed with a hybrid Gq protein that has a Gi receptor recognition domain, called Gq/i5.
(§3) NIH-3T3 cells are plated at a density of 2×10^6 cells in 15 cm dishes and maintained in Dulbecco's modified Eagle's medium supplemented with 10% calf serum. One day later, cells are cotransfected by calcium phosphate precipitation with mammalian expression plasmids encoding p-SV-β-galactosidase (5-10 μg), receptor (1-2 μg) and G protein (1-2 μg). 40 μg salmon sperm DNA may also be included in the transfection mixture. Fresh media is added on the following day and 1-2 days later, cells are harvested and frozen in 50 assay aliquots. Cells are thawed and […] added to […] aliquots of various concentrations of drugs in triplicate in 96-well dishes. Incubations continue 72-96 hr at 37° C. After washing with phosphatebuffered saline, β-galactosidase enzyme activity is determined by adding 200 μl of the chromogenic substrate (consisting of 3.5 mM o-nitrophenyl-β-D-galactopyranoside and 0.5% nonidet P-40 in phosphate buffered saline), incubating overnight at 30° C. and measuring optical density at 420 nm. The absorbance is a measure of enzyme activity, which depends on cell number and reflects a receptor-mediated cell proliferation. The EC50 and maximal effect of each drug at each alpha2 receptor is determined. The efficacy or intrinsic activity is calculated as a ratio of the maximal effect of the drug to the maximal effect of a standard full agonist for each receptor subtype. Brimonidine, also called UK14304, is used as the standard agonist for the alpha2A, alpha2B, and alpha2C receptors.
(§4) The compounds activity is expressed as its relative efficacy compared to a standard full agonist.

alpha2B receptor = target: T2, alpha2B receptor (Homo sapiens, UniProt P18089); test: RSAT assay, alpha 2B; format: cell-based; conditions: for (rel. efficacy) Alpha 2B: ratio of maximal effect to standard full agonist brimonidine (UK14304)
T2 construct: expressed in transfected cells; host or cells: NIH-3T3
T2 sequence (P18089 1-450): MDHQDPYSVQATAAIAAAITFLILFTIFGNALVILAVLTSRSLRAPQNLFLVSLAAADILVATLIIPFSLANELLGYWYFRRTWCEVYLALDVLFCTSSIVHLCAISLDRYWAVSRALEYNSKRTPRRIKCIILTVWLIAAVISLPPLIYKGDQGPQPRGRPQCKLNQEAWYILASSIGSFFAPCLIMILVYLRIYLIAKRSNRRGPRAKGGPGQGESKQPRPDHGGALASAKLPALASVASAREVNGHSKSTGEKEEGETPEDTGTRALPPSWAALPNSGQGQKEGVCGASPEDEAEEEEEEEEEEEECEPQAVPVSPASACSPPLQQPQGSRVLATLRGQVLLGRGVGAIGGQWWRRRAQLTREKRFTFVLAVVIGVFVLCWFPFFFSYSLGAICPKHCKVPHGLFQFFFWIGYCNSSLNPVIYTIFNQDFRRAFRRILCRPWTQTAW
Description: as §1, §2, §3, §4

[1] = RSAT, NIH-3T3 cells, NA = not active, read-out: EC50 (nM) Alpha 2C
[2] = RSAT, NIH-3T3 cells, NA = not active, read-out: EC50 (nM) Alpha 2B

Structure (SMILES)	EC50 (alpha2C receptor) [nM]	(rel. efficacy) Alpha 2C (alpha2C receptor; RSAT)	EC50 (alpha2B receptor) [nM]	(rel. efficacy) Alpha 2B (alpha2B receptor; RSAT)	EC50 (alpha2C receptor; [1]) [nM]	EC50 (alpha2B receptor; [2]) [nM]
FC(F)Oc1ccccc1CNC1=NCCO1	13	0.74	34	0.83		
Fc1ccc(Cl)c(F)c1CNC1=NCCO1		0.52	57	0.93	356	
Fc1cccc(CNC2=NCCO2)c1	17	0.59	39	0.82		
FC(F)Oc1cccc(CNC2=NCCO2)c1	60	0.49		0.6		217
Clc1ccc(Br)cc1CNC1=NCCS1		0.56		0.9	1330	296
FC(F)(F)c1cccc(CNC2=NCCO2)c1Cl		0.81	5	0.96	189	
Clc1cccc(CNC2=NCCS2)c1Cl	252	0.68	28	0.94		
Cc1cc(Br)c(F)c(CNC2=NCCS2)c1		0.62		1.04	803	168
Fc1c(Cl)cccc1CNC1=NCCO1 [drawing 19]	22	0.85	10	1.09		
Clc1ccccc1CNC1=NCCS1		0.66	50	0.85	699	
Clc1cccc(CNC2=NCCS2)c1		0.48	42	0.99	504	
Fc1c(CNC2=NCCS2)cccc1C(F)(F)F	1430	0.73	184	0.99		
Brc1cccc(CNC2=NCCS2)c1	459	0.5	75	0.84		
Clc1cccc(CNC2=NCCS2)c1Br		0.68	40	0.85	303	
Fc1c(Cl)cccc1CNC1=NCCS1	535	0.7	107	1.01		
COc1ccccc1CNC1=NCCO1 [drawing 17]		0.53	13.4	1.09	181	

Structure (SMILES)	EC50 (alpha2C receptor) [nM]	(rel. efficacy) Alpha 2C (alpha2C receptor; RSAT)	EC50 (alpha2B receptor) [nM]	(rel. efficacy) Alpha 2B (alpha2B receptor; RSAT)	EC50 (alpha2C receptor; [1]) [nM]	EC50 (alpha2B receptor; [2]) [nM]
Fc1ccc(Br)c(CNC2=NCCO2)c1	29	0.71	4	1.05		
Clc1cccc(CNC2=NCCO2)c1Cl	92	0.91	5	1.05		
Brc1ccccc1CNC1=NCCO1	85	0.85	5	1.09		
Fc1ccc(Br)cc1CNC1=NCCO1		0.63	18	0.89	186	
Clc1ccccc1CNC1=NCCO1	42	0.83	3.3	1.02		
Fc1ccc(Br)cc1CNC1=NCCS1		0.64		0.85	2060	280
FC(F)(F)c1ccccc1CNC1=NCCO1	21	0.8	31	0.97		
Clc1ccc(Br)cc1CNC1=NCCO1	81	0.71	20	0.98		
Cc1c(Cl)cccc1CNC1=NCCS1	401	0.72	40	0.99		
Brc1cccc(CNC2=NCCO2)c1	83	0.59	12	1.0		
Cc1cc(Cl)cc(CNC2=NCCS2)c1F	1250	0.51	351	0.96		
Fc1ccc(Br)c(CNC2=NCCS2)c1	452	0.67	73	0.97		
FC(F)(F)c1cccc(CNC2=NCCS2)c1Cl		0.46		1.08	854	101
Cc1cccc(CNC2=NCCO2)c1C	11	0.83	2	1.09		
COc1ccccc1CNC1=NCCS1 [drawing 16]	1550	0.74				
